Data from patent publication US20250281474A1, “PHARMACEUTICAL COMPOSITION FOR TREATING COGNITIVE DECLINE OR FOR TREATING OVERWEIGHTNESS OR OBESITY” (University of the Ryukyus, priority 2021, published 2025).
Read-outs that look alike come from different tables or passages of the source.

How the values were obtained:
NMDA receptor = assay: Ca2+-dependent inactivation of the NMDA receptor, Ca2+ imaging of brain slices; assay type: cell-based, mouse; details: brain slices of mice fed HFD 2 weeks; 3 μM, 60 min; n=3
[1] = Ca2+ indicator; cited from earlier work
CP-AMPAR = assay: Ca2+ imaging of hippocampal brain slices, AMPA+CTZ application, ob/ob mice; assay type: cell-based, mouse
AMPAR (CP-AMPAR) = assay: Ca2+ imaging of hippocampal brain slices, AMPA+CTZ application (CP-AMPA reaction), HFD-fed mice; assay type: cell-based
Method: First, the intracellular calcium concentration ([Ca^2+]i) was directly measured in an acute brain slice of the hippocampus having a perihippocampal region using a mouse obesity model associated with HFD feeding (composition of diet (7) shown in Table 1) for 12 weeks after weaning to track calcium signaling (FIG. 1A: supplementary data moving image 1) in the hippocampus. HFD-fed mice received […] containing 100 μM CTZ (cyclothiazide; […]) applied to EC (entorhinal cortex), CA1 (cornu ammonis 1), CA2, CA3, and DG (dentate gyrus). The F525 normalized before and after application was compared.

NMDAR [2] = assay: Ca2+ imaging of hippocampal brain slices, NMDA+glycine application, ob/ob mice; details: ob/ob mice orally administered PER; leptin 100 nM
NMDAR [3] = assay: Ca2+ imaging of hippocampal brain slices, NMDA+glycine application (NMDA reaction), HFD-fed mice; assay type: cell-based, mouse; details: HFD mice orally administered PER; leptin 100 nM

With CC(=O)OCOC(=O)CN(CC(=O)OCOC(C)=O)c1ccccc1OCCOc1ccccc1N(CC(=O)OCOC(C)=O)CC(=O)OCOC(C)=O [BAPTA-AM] the “inactivation of the NMDA receptor (reactivity to NMDA 50 μM and glycine 10 μM)” value (NMDA receptor) was “released the inactivation of the NMDA receptor”.
In the case of CC(=O)OCOC(=O)CN(CC(=O)OCOC(C)=O)c1ccc(C)cc1OCCOc1cc(-c2c3cc(Cl)c(=O)cc-3oc3cc(OCOC(C)=O)c(Cl)cc23)ccc1N(CC(=O)OCOC(C)=O)CC(=O)OCOC(C)=O [Fluo-3 AM], the Kd [1] is listed as 400 nM.
With Cc1cn2c(n1)Cc1ccc(Cl)cc1C(c1ccc(N)cc1)=N2 [GYKI 47261] the “inhibitory effect on CP-AMPAR in EC, CA1, CA2, CA3, DG” value (CP-AMPAR; ob/ob mice slices, 100 μM, p<0.05 (FIG. 10-1A)) was “significant inhibitory effect”.
In the case of NCCCNCCCCNCCCNC(=O)Cc1cccc2ccccc12 [NASPM, N-[3-[[4-[(3-aminopropyl)amino]butyl]amino]propyl]-1-naphthaleneacetamide], the “inhibitory effect on CP-AMPAR in EC, CA1, CA2, CA3, DG” value (CP-AMPAR) is reported as “significant inhibitory effect” and the “increase in [Ca2+]i via pathological AMPAR” value (AMPAR (CP-AMPAR)) is reported as “disappeared”.
With “leptin: hormone that regulates energy expenditure” the “function of NMDAR in EC, CA1, CA2, CA3, DG” value (NMDAR [2]) was “significantly enhanced” and the “function of NMDAR in EC, CA1, CA2, CA3, DG” value (NMDAR [3]) was “significantly enhanced”.
